Results on eight compounds are retold here after PubChem BioAssay (NCI).

Some test systems named below: PC-3 prostate; CAKI-1 renal; OVCAR-5 ovarian; SK-MEL-28 melanoma; UO-31 renal; NCI-H522 lung; 786-0 renal; MCF7 breast; NCI-H460 lung; SF-268 CNS; SR leukemia; UACC-62 melanoma; K-562 leukemia; A498 renal; CCRF-CEM leukemia; SNB-19 CNS; NCI-H226 lung; T-47D breast; SF-539 CNS; SF-295 CNS.
Holding throughout (assay): NCI-60 cell line screen, 48 h

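These data come from cells grown in 96-well plates and exposed to compound for 48 hours at five concentrations. At the TGI there is no net growth.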

Take `S=C(/N=c1/sc(Nc2ccccc2)nc2sc3c(c12)CCCC3)Nc1ccccc1`: the TGI in the assay with PC-3 prostate, in the assay on CAKI-1 renal, in the assay on OVCAR-5 ovarian, in the assay with SK-MEL-28 melanoma, with UO-31 renal and with NCI-H522 lung was more than 62.5 µM each time. Besides, the TGI in the assay with 786-0 renal, in the assay on MCF7 breast, with NCI-H460 lung, in the assay with SF-268 CNS, in the assay with SR leukemia and in the assay on UACC-62 melanoma was more than 62.5 µM throughout. Moreover, the TGI in the assay with K-562 leukemia, with A498 renal, in the assay on CCRF-CEM leukemia, with SNB-19 CNS and in the assay on NCI-H226 lung was more than 62.5 µM each time.

In the case of `O=P(c1ccccc1)(c1ccccc1)C(NCc1ccccc1)c1ccc(F)cc1` (stereo unspecified), the TGI worked out at 60.7 µM in the assay on T-47D breast; 38 µM in the assay with CAKI-1 renal; 36.2 µM in the assay on SF-539 CNS; 28.9 µM in the assay on SK-MEL-28 melanoma; 25.3 µM with UO-31 renal; 25.2 µM with NCI-H522 lung. The TGI with 786-0 renal came out at 34.8 µM; with SF-295 CNS, 29.4 µM; in the assay with NCI-H460 lung, 26.7 µM; in the assay on SF-268 CNS, 37.4 µM; with SR leukemia it was 49.5 µM; with UACC-62 melanoma, 27.3 µM. In addition, the TGI was found to be 65.4 µM with K-562 leukemia; 32 µM in the assay on A498 renal; 48.6 µM in the assay with CCRF-CEM leukemia; 33.5 µM with SNB-19 CNS; 40.4 µM in the assay on NCI-H226 lung.

Take `Cc1nnc([C@@]2(C)CC[C@H]3[C@@H](CC=C4C[C@@H](O)CC[C@@]43C)[C@@H]2CC#N)o1`: the TGI with PC-3 prostate, in the assay with CAKI-1 renal, in the assay on OVCAR-5 ovarian, with SF-539 CNS, with UO-31 renal and with NCI-H522 lung was more than 100 µM throughout. The TGI with 786-0 renal, in the assay on SF-295 CNS, in the assay on MCF7 breast, with SF-268 CNS, in the assay on SR leukemia and with UACC-62 melanoma was more than 100 µM each time. Besides, the TGI in the assay on K-562 leukemia, in the assay with A498 renal, in the assay on CCRF-CEM leukemia, in the assay with SNB-19 CNS and in the assay on NCI-H226 lung was more than 100 µM each time.

In the case of `CN(C)CC(CN(C)C)c1ccccn1`, the TGI with PC-3 prostate, in the assay on CAKI-1 renal, with OVCAR-5 ovarian, with SF-539 CNS, with SK-MEL-28 melanoma and in the assay on UO-31 renal was more than 100 µM each time. The TGI in the assay on NCI-H522 lung, with 786-0 renal, in the assay with SF-295 CNS, in the assay with MCF7 breast, in the assay with NCI-H460 lung and in the assay on SF-268 CNS was more than 100 µM in each case. Besides, the TGI in the assay on SR leukemia, in the assay with UACC-62 melanoma, in the assay with K-562 leukemia, in the assay with A498 renal, in the assay on CCRF-CEM leukemia and in the assay with SNB-19 CNS was more than 100 µM throughout. In the assay on NCI-H226 lung, the TGI is more than 100 µM.

For the compound `Cn1c(=O)c2c(nc(NCCCCl)n2CC(=O)NCCCCl)n(C)c1=O`, the TGI in the assay with T-47D breast, with PC-3 prostate, in the assay on CAKI-1 renal, in the assay with OVCAR-5 ovarian, in the assay on SK-MEL-28 melanoma and in the assay on UO-31 renal was more than 100 µM throughout. Besides, the TGI with NCI-H522 lung, in the assay on 786-0 renal, with SF-295 CNS, in the assay with NCI-H460 lung, in the assay with SF-268 CNS and in the assay on UACC-62 melanoma was more than 100 µM in each case. For the same compound, the TGI with K-562 leukemia, in the assay with A498 renal, in the assay on CCRF-CEM leukemia, in the assay with SNB-19 CNS and in the assay with NCI-H226 lung was more than 100 µM each time.

For the compound `COc1ccc(-c2c(C(C)=O)c(-c3ccccc3)n(C3OC(COC(C)=O)C(OC(C)=O)C(OC(C)=O)C3OC(C)=O)c(=S)c2C#N)cc1` (stereo unspecified), the TGI with T-47D breast, in the assay on CAKI-1 renal, in the assay with OVCAR-5 ovarian, in the assay with SF-539 CNS, in the assay with SK-MEL-28 melanoma and in the assay with NCI-H522 lung was more than 100 µM in each case. In addition, the TGI in the assay with 786-0 renal, with SF-295 CNS, with MCF7 breast, in the assay on NCI-H460 lung, in the assay on SF-268 CNS and in the assay on SR leukemia was more than 100 µM throughout. The TGI in the assay with UACC-62 melanoma, in the assay with K-562 leukemia, in the assay with A498 renal, in the assay on CCRF-CEM leukemia, in the assay with SNB-19 CNS and in the assay on NCI-H226 lung was more than 100 µM in each case.

Take `CCOC(=O)Cn1sc2ncc([N+](=O)[O-])cc2c1=O`: the TGI with T-47D breast came out at 37.5 µM; in the assay with PC-3 prostate, 28 µM; in the assay with OVCAR-5 ovarian it was 38 µM; with SF-539 CNS, 38.5 µM; in the assay with SK-MEL-28 melanoma, 28.6 µM; with UO-31 renal it was 21.8 µM. For the same compound, the TGI in the assay with NCI-H522 lung was 39.5 µM; in the assay with 786-0 renal, 30.6 µM; with SF-295 CNS it was 34.8 µM; in the assay with MCF7 breast, 35.3 µM; in the assay on NCI-H460 lung, 34.4 µM; with SF-268 CNS, 44.6 µM. Also, the TGI in the assay with UACC-62 melanoma was 48.4 µM; in the assay with K-562 leukemia, 12.3 µM; with A498 renal it was more than 100 µM; with CCRF-CEM leukemia, 5.41 µM; with NCI-H226 lung, more than 100 µM.

For the compound `CC(=O)OCC1OC(N2C(c3ccccc3)=CC(c3ccccc3)C(C#N)=C2S)C(OC(C)=O)C(OC(C)=O)C1OC(C)=O` (stereo unspecified), the TGI in the assay with T-47D breast is more than 24.3 µM; in the assay on CAKI-1 renal, 7.73 µM; with OVCAR-5 ovarian, more than 100 µM; in the assay with SF-539 CNS, 16.2 µM; in the assay on SK-MEL-28 melanoma, more than 100 µM; with UO-31 renal, 51 µM. The TGI was 28.6 µM with NCI-H522 lung; 9.85 µM in the assay with 786-0 renal; 10.1 µM in the assay with SF-295 CNS; more than 65.4 µM in the assay on MCF7 breast; more than 49.5 µM in the assay on NCI-H460 lung; 19.6 µM in the assay on SF-268 CNS. In addition, the TGI with SR leukemia is more than 100 µM; in the assay on UACC-62 melanoma, 7.67 µM; in the assay with K-562 leukemia, more than 100 µM; in the assay with A498 renal, 44.2 µM; in the assay with CCRF-CEM leukemia, more than 100 µM; in the assay on SNB-19 CNS, 26.5 µM. The TGI in the assay on NCI-H226 lung is more than 100 µM.
